Measured values: patent publication US5500414A, “Derivatives of peptides usable as inhibitors of bacterial collagenases” (Commissariat a l'Energie Atomique, priority 1991, dated 1996)

What follows are substances tested against bacterial collagenase (assay: Inhibition of bacterial collagenase; Ki from dissociation and association rate constants, substrate Fa--Leu--Gly--Pro--Ala). Details: ratio Koff/Kon, slow binding inhibitors, pH7 Tricine buffer.
Assay type: biochemical, Empedobacterium collagenolyticum
Description: The activities of the different compounds A, B, C and D were determined on the one hand by measuring the association rate constant of the inhibitors to collagenase by the method of Morrison, J. & Walsh, C. T., 1987, Adv., Enzymol. Relat. Aeras Mol. Biol. applied in the case where the inhibitors are of the slow binding type and on the other hand by measuring the dissociation rate constants of the inhibitors of the enzyme--inhibitor complex. In this case, after allowing the collagenase to preincubate in the presence of an inhibitor excess, the thus formed enzyme--inhibitor complex is purified by gel filtration. The solution containing the purified complex is then diluted by a factor of 10,000 in a reference buffer and then, as a function of time, measurement takes place of the return of the activity of the collagenase, which represents the dissociation of the inhibitor of the enzyme--inhibitor complex.
The inhibition constants given in the table correspond to the ratio of the dissociation rate constants Koff and the association rate constants Kon measured in this way. In all the activity measurement experiments we used as the synthetic substrate Fa--Leu--Gly--Pro--Ala in a pH7 Tricine buffer. The source of the bacterial collagenase used was the strain Empedobacterium collagenolyticum.

Substance	Ki [nM]
Z--Pro--Phe*--PO(OH)--CH2 --CH2 --CO--Pro--Nle* 2Na^+ [Compound B]	80
Z--Gly--Pro--Phe*--PO(OH)--CH2 --CH2 --CO--Pro--Nle*2Na^+	0.4
Z,D,L-Phe*PCH2DL-Ala°ProNle°, 2Na^+ [F]	2350
Z--D,LPhe*--PO2 CH2 --CH2 --CO--Pro--Nle*,2Na^+ [Compound A]	12
